Laboratory results as given in patent US4468511A, “C-20- And C-23-Modified macrolide derivatives” (Eli Lilly and Company, priority 1983, dated 1984).
In brackets after ≈: the same amount, converted by molar mass. Read-outs that look alike come from different tables or passages of the source.

Experiments:
Mycoplasma synoviae = experiment: MIC, conventional broth-dilution microtiter test; type: cell-based; details: Mycoplasmopsis synoviae
Description: (§1) Certain of the derivatives are active against some gram-negative bacteria, such as Pasteurella species. The MIC's in Table II were determined by standard agar-dilution assays. The MIC's in Table III were obtained using a conventional broth-dilution microtiter test.

[1] = system: Pasteurella multocida 68C; experiment: MIC, conventional broth-dilution microtiter test; type: cell-based; details: Pasteurella multocida, 68C
Description: as §1

[2] = system: Pasteurella hemolytica 41D; experiment: MIC, conventional broth-dilution microtiter test; type: cell-based
Description: as §1

[3] = system: Pasteurella hemolytica 22C; experiment: MIC, conventional broth-dilution microtiter test; type: cell-based
Description: as §1

[4] = system: Pasteurella multocida 22A; experiment: MIC, conventional broth-dilution microtiter test; type: cell-based
Description: as §1

[5] = system: Pasteurella multocida 40G; experiment: MIC, conventional broth-dilution microtiter test; type: cell-based; details: Pasteurella multocida, 40G
Description: as §1

Streptococcus sp. 80 = experiment: MIC, conventional broth-dilution microtiter test; type: cell-based
Description: as §1

[6] = system: Mycoplasma gallisepticum 41313; experiment: MIC, conventional broth-dilution microtiter test; type: cell-based; details: Mycoplasmoides gallisepticum
Description: as §1

Mycoplasma hyorhinis = experiment: MIC, conventional broth-dilution microtiter test; type: cell-based
Description: as §1

[7] = system: Pasteurella multocida 60A; experiment: MIC, conventional broth-dilution microtiter test; type: cell-based; details: Pasteurella multocida, 60A
Description: as §1

[8] = system: Pasteurella multocida 17E; experiment: MIC, conventional broth-dilution microtiter test; type: cell-based
Description: as §1

Staphylococcus aureus = experiment: MIC, conventional broth-dilution microtiter test; type: cell-based
Description: as §1

Mycoplasma gallisepticum = experiment: MIC, conventional broth-dilution microtiter test; type: cell-based; details: Mycoplasmoides gallisepticum
Description: as §1

[9] = system: Mycoplasma gallisepticum 34159; experiment: MIC, conventional broth-dilution microtiter test; type: cell-based; details: Mycoplasmoides gallisepticum
Description: as §1

[10] = system: Pasteurella hemolytica 23C; experiment: MIC, conventional broth-dilution microtiter test; type: cell-based
Description: as §1

[11] = system: Staphylococcus aureus V41; experiment: MIC, standard agar-dilution assay; type: cell-based
Description: as §1

[12] = system: Streptococcus pyogenes 9960; experiment: MIC, standard agar-dilution assay; type: cell-based; details: 9960
Description: as §1

[13] = system: Staphylococcus aureus X1.1; experiment: MIC, standard agar-dilution assay; type: cell-based
Description: as §1

[14] = system: Klebsiella pneumoniae X26; experiment: MIC, standard agar-dilution assay; type: cell-based; details: Klebsiella pneumoniae, X26
Description: as §1

Escherichia coli TEM = experiment: MIC, standard agar-dilution assay; type: cell-based
Description: as §1

[15] = system: Streptococcus Group D X66; experiment: MIC, standard agar-dilution assay; type: cell-based
Description: as §1

[16] = system: Klebsiella pneumoniae KAE; experiment: MIC, standard agar-dilution assay; type: cell-based
Description: as §1

Escherichia coli EC14 = experiment: MIC, standard agar-dilution assay; type: cell-based
Description: as §1

[17] = system: Streptococcus pneumoniae Park I; experiment: MIC, standard agar-dilution assay; type: cell-based; details: Streptococcus pneumoniae
Description: as §1

[18] = system: Streptococcus pyogenes C203; experiment: MIC, standard agar-dilution assay; type: cell-based; details: Streptococcus pyogenes, C203
Description: as §1

[19] = system: Staphylococcus aureus X400; experiment: MIC, standard agar-dilution assay; type: cell-based
Description: (§2) The MIC's in Table II were determined by standard agar-dilution assays. The MIC's in Table III were obtained using a conventional broth-dilution microtiter test.

[20] = system: Staphylococcus epidermidis EPI2; experiment: MIC, standard agar-dilution assay; type: cell-based
Description: as §2

[21] = system: Staphylococcus aureus S13E; experiment: microbe, parasite or virus in culture; type: cell-based
Description: as §2

[22] = system: Staphylococcus epidermidis EPI1; experiment: microbe, parasite or virus in culture; type: cell-based
Description: as §2

[23] = system: Haemophilus influenzae C.L.; experiment: MIC, standard agar-dilution assay; type: cell-based; details: Haemophilus influenzae
Description: as §2

[24] = system: Streptococcus pyogenes C203; experiment: Protection of mice experimentally infected with S. pyogenes C203; type: in vivo;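 note: two doses given 1 and 4 hours after infection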
Description: Some of the derivatives of this invention have shown in vivo antimicrobial activity against experimentally-induced infections in laboratory animals. When two doses of test compound were administered to mice experimentally infected with S. pyogenes C203, the activity observed was measured as an ED50 value [effective dose in mg/kg to protect 50% of the test animals: see Warren Wick, et al., J. Bacteriol. 81, 233-235 (1961)].

[25] = Staphylococcus epidermidis, EPI2
[26] = Staphylococcus epidermidis, EPI1

## CCC1OC(=O)CC(O)C(C)C(OC2OC(C)C(OC(C)=O)C(N(C)C)C2OC(C)=O)C(CCOC(=O)Cc2ccccc2)CC(C)C(=O)C=CC(C)=CC1COC(=O)Cc1ccccc1 (stereo not drawn) [Compound 55, 2',4'-di-O-acetyl-20,23-di-O-phenylacetyl-20-dihydro-OMT]
Mycoplasma synoviae
  MIC: 6.25 µg/mL (≈ 6.79 µM)
[1]
  MIC: > 50 µg/mL
[2]; Pasteurella, 41D
  MIC: > 50 µg/mL
[3]; Pasteurella, 22C
  MIC: > 50 µg/mL
[4]; Pasteurella multocida, 22A
  MIC: > 50 µg/mL
[5]
  MIC: > 50 µg/mL
Streptococcus sp. 80; Streptococcus, SP.80
  MIC: 1.56 µg/mL (≈ 1.7 µM)
[6]; 41313
  MIC: 0.78 µg/mL (≈ 0.848 µM)
Mycoplasma hyorhinis; Mycoplasma
  MIC: 50 µg/mL (≈ 54.3 µM)
[7]
  MIC: 50 µg/mL (≈ 54.3 µM)
[8]; Pasteurella multocida, 17E
  MIC: > 50 µg/mL
Staphylococcus aureus
  MIC: 0.78 µg/mL (≈ 0.848 µM)
Mycoplasma gallisepticum
  MIC: 0.097 µg/mL (≈ 0.105 µM)
[9]; 34159
  MIC: 3.12 µg/mL (≈ 3.39 µM)
[10]; Pasteurella, 23C
  MIC: > 50 µg/mL
[11]; Staphylococcus aureus, V41
  MIC: 8 µg/mL (≈ 8.69 µM)
[12]
  MIC: 8 µg/mL (≈ 8.69 µM)
[13]; Staphylococcus aureus, X1.1
  MIC: 8 µg/mL (≈ 8.69 µM)
[14]
  MIC: > 128 µg/mL
Escherichia coli TEM; Escherichia coli
  MIC: > 128 µg/mL
[15]
  MIC: 8 µg/mL (≈ 8.69 µM)
[16]; Klebsiella pneumoniae
  MIC: > 128 µg/mL
Escherichia coli EC14; Escherichia coli, EC14
  MIC: > 128 µg/mL
[17]
  MIC: 1 µg/mL (≈ 1.09 µM)
[18]
  MIC: 2 µg/mL (≈ 2.17 µM)
[19]; Staphylococcus aureus, X400
  MIC: 8 µg/mL (≈ 8.69 µM)
[20]; [25]
  MIC: 2 µg/mL (≈ 2.17 µM)
[21]
  MIC: 4 µg/mL (≈ 4.35 µM)
[22]; [26]
  MIC: 4 µg/mL (≈ 4.35 µM)

## CCC1OC(=O)CC(O)C(C)C(OC2OC(C)C(OC3CC(C)(O)C(O)C(C)O3)C(N(C)C)C2O)C(CCNCc2ccccc2)CC(C)C(=O)C=CC(C)=CC1C (stereo not drawn) [Compound 25, 20-N-Benzylamino-20-deoxy-20-dihydro-DMOT]
Mycoplasma synoviae
  MIC: 50 µg/mL (≈ 61.2 µM)
[1]
  MIC: 50 µg/mL (≈ 61.2 µM)
[2]; broth-dilution microtiter, Pasteurella hemolytica 41D, read-out: MIC
  MIC: > 50 µg/mL
[3]; broth-dilution microtiter, Pasteurella hemolytica 22C, read-out: MIC
  MIC: > 50 µg/mL
[4]; broth-dilution microtiter, Pasteurella multocida 22A, read-out: MIC
  MIC: > 50 µg/mL
[5]
  MIC: 50 µg/mL (≈ 61.2 µM)
Streptococcus sp. 80; broth-dilution microtiter, Streptococcus sp. 80, read-out: MIC
  MIC: 6.25 µg/mL (≈ 7.65 µM)
[6]; broth-dilution microtiter, Mycoplasma gallisepticum 41313, Resistant strain, read-out: MIC
  MIC: > 50 µg/mL
Mycoplasma hyorhinis; broth-dilution microtiter, Mycoplasma hyorhinis, read-out: MIC
  MIC: > 50 µg/mL
[7]
  MIC: 50 µg/mL (≈ 61.2 µM)
[8]; broth-dilution microtiter, Pasteurella multocida 17E, Bovine isolate, read-out: MIC
  MIC: > 50 µg/mL
Staphylococcus aureus; broth-dilution microtiter, read-out: MIC
  MIC: 12.5 µg/mL (≈ 15.3 µM)
Mycoplasma gallisepticum; broth-dilution microtiter, Mycoplasma gallisepticum, read-out: MIC
  MIC: 1.56 µg/mL (≈ 1.91 µM)
[9]; broth-dilution microtiter, Mycoplasma gallisepticum 34159, Resistant strain, read-out: MIC
  MIC: > 50 µg/mL
[10]; broth-dilution microtiter, Pasteurella hemolytica 23C, read-out: MIC
  MIC: > 50 µg/mL
[11]; agar-dilution, Staphylococcus aureus V41, Penicillin-resistant strain, read-out: MIC
  MIC: 4 µg/mL (≈ 4.9 µM)
[12]
  MIC: 8 µg/mL (≈ 9.79 µM)
[13]; agar-dilution, Staphylococcus aureus X1.1, read-out: MIC
  MIC: 4 µg/mL (≈ 4.9 µM)
[14]
  MIC: 64 µg/mL (≈ 78.3 µM)
Escherichia coli TEM; agar-dilution, Escherichia coli TEM, read-out: MIC
  MIC: > 128 µg/mL
[15]
  MIC: 8 µg/mL (≈ 9.79 µM)
[16]; agar-dilution, Klebsiella pneumoniae KAE, read-out: MIC
  MIC: > 128 µg/mL
Escherichia coli EC14; agar-dilution, Escherichia coli EC14, read-out: MIC
  MIC: > 128 µg/mL
[17]
  MIC: 1 µg/mL (≈ 1.22 µM)
[18]
  MIC: 2 µg/mL (≈ 2.45 µM)
[23]
  MIC: 64 µg/mL (≈ 78.3 µM)
[19]; agar-dilution, Staphylococcus aureus X400, Methicillin-resistant strain, read-out: MIC
  MIC: 4 µg/mL (≈ 4.9 µM)
[20]; agar-dilution, Staphylococcus epidermidis EPI2, read-out: MIC
  MIC: 4 µg/mL (≈ 4.9 µM)
[24]; C203, po, read-out: ED50 Oral
  ED50: > 100 mg/kg
[24]; C203, sc, read-out: ED50 Subcutaneous
  ED50: > 25 mg/kg
[21]
  MIC: 8 µg/mL (≈ 9.79 µM)
[22]; agar-dilution, Staphylococcus epidermidis EPI1, read-out: MIC
  MIC: 4 µg/mL (≈ 4.9 µM)

## CCC1OC(=O)CC(O)C(C)C(OC2OC(C)C(OC(C)=O)C(N(C)C)C2OC(C)=O)C(CCOC(=O)Cc2ccccc2)CC(C)C(=O)C=CC(C)=CC1CO (stereo not drawn) [Compound 54, 2',4'-Di-O-acetyl-20-O-phenylacetyl-20-dihydro-OMT]
Mycoplasma synoviae
  MIC: 25 µg/mL (≈ 31.2 µM)
[1]
  MIC: 6.25 µg/mL (≈ 7.79 µM)
[2]; Pasteurella, 41D
  MIC: 12.5 µg/mL (≈ 15.6 µM)
[3]; Pasteurella, 22C
  MIC: 12.5 µg/mL (≈ 15.6 µM)
[4]; Pasteurella multocida, 22A
  MIC: 25 µg/mL (≈ 31.2 µM)
[5]
  MIC: 25 µg/mL (≈ 31.2 µM)
Streptococcus sp. 80; Streptococcus, SP.80
  MIC: 3.12 µg/mL (≈ 3.89 µM)
[6]; 41313
  MIC: 0.78 µg/mL (≈ 0.973 µM)
Mycoplasma hyorhinis; Mycoplasma
  MIC: 50 µg/mL (≈ 62.3 µM)
[7]
  MIC: 6.25 µg/mL (≈ 7.79 µM)
[8]; Pasteurella multocida, 17E
  MIC: 12.5 µg/mL (≈ 15.6 µM)
Staphylococcus aureus
  MIC: 0.78 µg/mL (≈ 0.973 µM)
Mycoplasma gallisepticum
  MIC: 0.048 µg/mL (≈ 0.0599 µM)
[9]; 34159
  MIC: 3.12 µg/mL (≈ 3.89 µM)
[10]; Pasteurella, 23C
  MIC: 12.5 µg/mL (≈ 15.6 µM)
[11]; Staphylococcus aureus, V41
  MIC: 2 µg/mL (≈ 2.49 µM)
[12]
  MIC: 4 µg/mL (≈ 4.99 µM)
[13]; Staphylococcus aureus, X1.1
  MIC: 2 µg/mL (≈ 2.49 µM)
[14]
  MIC: 4 µg/mL (≈ 4.99 µM)
Escherichia coli TEM; Escherichia coli
  MIC: 16 µg/mL (≈ 20 µM)
[15]
  MIC: 4 µg/mL (≈ 4.99 µM)
[16]; Klebsiella pneumoniae
  MIC: > 128 µg/mL
Escherichia coli EC14; Escherichia coli, EC14
  MIC: > 128 µg/mL
[17]
  MIC: 0.5 µg/mL (≈ 0.623 µM)
[18]
  MIC: 1 µg/mL (≈ 1.25 µM)
[19]; Staphylococcus aureus, X400
  MIC: 2 µg/mL (≈ 2.49 µM)
[20]; [25]
  MIC: 2 µg/mL (≈ 2.49 µM)
[21]
  MIC: 2 µg/mL (≈ 2.49 µM)
[22]; [26]
  MIC: 2 µg/mL (≈ 2.49 µM)
